# Test results taken from ChEMBL document CHEMBL1130992, “Effect of side chain location in (2-aminoethyl)-aminomethyl-2-phenylquinolines as antitumor agents” (1998).
# Columns and labels:
# HeLa [1] = test: Compound was tested for antitumor activity against the human uterine cancer cell (HeLa) line at concentration of 1 x 10 e-7 M; format: functional
# HeLa [2] = test: Compound was tested for antitumor activity against the human uterine cancer cell (HeLa) line at concentration of […] x 10 e-4 M; format: functional
# Nucleic Acid [3] = test: Compound was evaluated for DNA-binding affinity using poly[d(AT)]2; format: nucleic-acid assay
# [4] = Ratio of C50(GC) to that of C50(AT)
# Nucleic Acid [5] = test: Compound was evaluated for DNA-binding affinity using calf-thymus DNA; format: nucleic-acid assay; conditions: Bos taurus
# HeLa [6] = test: Compound was tested for antitumor activity against the human uterine cancer cell (HeLa) line at concentration of 1 x 10 e-6 M; format: functional
# HeLa [7] = test: Compound was tested for antitumor activity against the human uterine cancer cell (HeLa) line at concentration of […] x 10 e-5 M; format: functional
# Nucleic Acid [8] = test: Compound was evaluated for DNA-binding affinity using poly[d(GC)]2; format: nucleic-acid assay
SMILES,Cell survival (HeLa [1]),Cell survival (HeLa [2]),C50 (Nucleic Acid [3]),Ratio [4],C50 (Nucleic Acid [5]),Cell survival (HeLa [6]),Cell survival (HeLa [7]),C50 (Nucleic Acid [8])
Cl.Cl.Cl.NCCNCc1cc(-c2ccccc2)nc2ccccc12,74%,8%,33 µM,1.5,30 µM,62%,52%,48 µM
Cl.Cl.NCCNCc1ccc2nc(-c3ccccc3)ccc2c1,85%,0%,,,,82%,44%,
Cl.Cl.Cl.NCCNCc1ccc2ccc(-c3ccccc3)nc2c1,98%,3%,11 µM,1.5,11 µM,70%,31%,16 µM
Cl.Cl.Cl.NCCNCc1cccc2ccc(-c3ccccc3)nc12,77%,0%,5.2 µM,1.1,2.1 µM,65%,7%,5.6 µM
Cl.Cl.Cl.NCCNCc1c2ccccc2nc2ccccc12,100%,3%,,,,94%,71%,
Cl.Cl.Cl.NCCNCc1ccc(-c2ccc3ccccc3n2)cc1,79%,3%,7 µM,1.6,7 µM,87%,65%,11 µM
